In patent publication US20110237632A1, “ANTIFOULING COMBINATION COMPRISING 4-BROMO-2-(4- CHLOROPHENYL)-5-(TRIFLUOROMETHYL)-1H-PYRROLE-3-CARBONITRILE” (priority 2008, published 2011):

Test system: Tribonema sp. CCAP880/2
Experiment: Poison Plate Assay (algal growth inhibition, MIC and synergy index)
Assay type: cell-based
Settings: 336 h, BG11 liquid medium, 24-well plates, 21° C., evaluation after 2 weeks of exposure, total ppm of combination at given ratio (I) to (II), read-out: MIC-values in ppm (minimum inhibitory concentration)
Method: • General procedure: to each well of a 24-well microtiter plate, 1990 μl BG11 medium containing the test compounds in one of the concentrations of a dose series is added. The liquid freshwater mineral medium is inoculated by adding an aliquot of an actively growing, 3 week old liquid BG11 culture of algae and incubated at 21° C., 65% relative humidity, 1000 Lux 16 hr/day. The growth is evaluated after two weeks. • Test compounds: 4-bromo-2-(4-chloro-phenyl)-5-(trifluoromethyl)-1H-pyrrole-3-carbonitrile as component (I) butylBIT as component (II); • Stock solution: 8000 and 80.000 ppm in DMSO
• Test combinations: • Concentrations: 1.6-1.2-0.9-0.68-0.51-0.38-0.29-0.21-0.16-0.12-0.09-0.07 ppm • Culture medium: algae: BG 11 liquid mineral medium • Experimental set up: 24-well plates • Species of algae: Tribonema sp. CCAP880/2 • Inoculum: algae: […] of a 1/10 dilution in BG 11 of a two week old culture • Culture conditions: 21° C., 65% relative humidity, 1000 lux, 16 hour photoperiod • Evaluation: algae: after 2 weeks of exposure
Synergism between component (I) and one of the components (II) was determined by a commonly used and accepted method described by Kull F. C. et al. in Applied Microbiology, 9, 538-541 (1961) using the Synergy Index, which is calculated as follows for two compounds A and B: […]

Compound: CCCCn1sc2ccccc2c1=O [(I) + (II) 0 + 100, 2-butyl-1,2-benzisothiazol-3(2H)one]
- MIC: 2.1 µg/mL
